Test results: ChEMBL document CHEMBL3714766, “Tetrahydroisoquinoline compounds and their use as pyruvate dehydrogenase kinase inhibitors” (2015)

biological target: Pyruvate dehydrogenase kinase (Homo sapiens, UniProt Q15119+Q15120+Q16654+Q15118); test: Binding affinity to pyruvate dehydrogenase kinase (unknown origin) by VER-00160364 probe based fluorescence polarization assay

Row | SMILES | IC50 [nM]
1 | C[C@H]1CCc2cc(-c3ccc(N4CCCC4)nn3)ccc2N1C(=O)c1ccc(O)cc1O | 100
2 | CC1CCc2cc(C(=O)N(C)Cc3nc4ccccc4s3)ccc2N1C(=O)c1ccc(O)cc1O (stereo unspecified) | 100
3 | C[C@H]1CCc2cc(-c3ccc(-c4ccccc4Cl)cn3)ccc2N1C(=O)c1ccc(O)cc1O | 10000
4 | Cc1cc(S(=O)(=O)NCc2ccccc2)cnc1-c1ccc2c(c1)CC[C@H](C)N2C(=O)c1ccc(O)cc1O | 10
5 | Cc1ccnnc1-c1ccc2c(c1)CC[C@H](C)N2C(=O)c1ccc(O)cc1O | 100
6 | CC1CCc2cc(C(=O)N(C)Cc3nc4ccccc4[nH]3)ccc2N1C(=O)c1ccc(O)cc1O (stereo unspecified) | 100
7 | Cc1cc2ccc(F)cc2nc1-c1ccc2c(c1)CCC(c1cccnc1)N2C(=O)c1ccc(O)cc1O (stereo unspecified) | 10
8 | CC1CCc2cc(C(=O)N3Cc4ccccc4C3)ccc2N1C(=O)c1ccc(O)cc1O (stereo unspecified) | 100
9 | CC1CCc2cc(C(=O)N(C)C)ccc2N1C(=O)c1ccc(O)cc1O (stereo unspecified) | 100
10 | CC1CCc2cc(Br)ccc2N1C(=O)c1ccc(O)cc1O (stereo unspecified) | 1000
11 | Cc1cc2cc(F)ccc2nc1-c1ccc2c(c1)CC[C@H](C)N2C(=O)c1ccc(O)cc1O | 1000
12 | CCCc1cncnc1-c1ccc2c(c1)CC[C@H](C)N2C(=O)c1ccc(O)cc1O | 100
13 | CNc1ccc(-c2ccc3c(c2)CC[C@H](C)N3C(=O)c2ccc(O)cc2O)c(C)n1 | 100
14 | C[C@H]1CCc2cc(F)ccc2N1C(=O)c1ccc(O)cc1O | 100
15 | COc1ccc2nc(-c3ccc4c(c3)CC[C@H](C)N4C(=O)c3ccc(O)cc3O)c(C)cc2c1 | 100
16 | CC1CCc2cc(-c3ncccc3Cl)ccc2N1C(=O)c1cc(Cl)c(O)cc1O (stereo unspecified) | 1000
17 | Cc1cnc(OCCN(C)C)nc1-c1ccc2c(c1)CC[C@H](C)N2C(=O)c1ccc(O)cc1O | 100
18 | C[C@H]1CCc2cc(-c3nc4ccccc4nc3C(F)(F)F)ccc2N1C(=O)c1ccc(O)cc1O | 100
19 | Cn1ccnc1-c1ccc2c(c1)CCCN2C(=O)c1ccc(O)cc1O | 1000

More lines, now with the values ahead:

Row | IC50 [nM] | SMILES
20 | 100 | CC1CCc2cc(C(=O)N(C)Cc3cc4cc(F)ccc4[nH]3)ccc2N1C(=O)c1ccc(O)cc1O (stereo unspecified)
21 | 100 | COCCN(C)S(=O)(=O)c1cnc(-c2ccc3c(c2)CC[C@H](C)N3C(=O)c2ccc(O)cc2O)c(C)c1
22 | 100 | Cc1c(Cl)nc(Cl)nc1-c1ccc2c(c1)CC[C@H](C)N2C(=O)c1ccc(O)cc1O
23 | 1000 | CCc1cc2ccccc2nc1-c1ccc2c(c1)CC[C@H](C)N2C(=O)c1ccc(O)cc1O
24 | 100 | CCc1nccnc1-c1ccc2c(c1)CC[C@H](C)N2C(=O)c1ccc(O)cc1O
25 | 100 | CCc1cnc(C)nc1-c1ccc2c(c1)CC[C@H](C)N2C(=O)c1ccc(O)cc1O
26 | 100 | CNc1nccc(-c2ccc3c(c2)CC[C@H](C)N3C(=O)c2ccc(O)cc2O)n1
27 | 100 | CC1CCc2cc(-c3ccnn3C)ccc2N1C(=O)c1ccc(O)cc1O (stereo unspecified)
28 | 1000 | Cc1nc(N(C)C)nc(-c2ccc3c(c2)CC[C@H](C)N3C(=O)c2ccc(O)cc2O)c1C
29 | 10 | CC(=O)N1CCN(S(=O)(=O)c2cnc(-c3ccc4c(c3)CC[C@H](C)N4C(=O)c3ccc(O)cc3O)c(C)c2)CC1
30 | 10 | Cc1cncnc1-c1ccc2c(c1)CCC(c1cccnc1)N2C(=O)c1ccc(O)cc1O (stereo unspecified)
31 | 1000 | Cc1ccc(-c2ccc3c(c2)CC[C@H](C)N3C(=O)c2ccc(O)cc2O)c(Cl)c1
32 | 10000 | Cc1cnc(Cl)nc1-c1ccc2c(c1)CC[C@@H](C)N2C(=O)c1ccc(O)cc1O
33 | 10000 | C[C@@H]1CCc2cc(C(=O)N(C)C)ccc2N1C(=O)c1ccc(O)cc1O
34 | 10 | Cc1cc(S(=O)(=O)N2CCOCC2)cnc1-c1ccc2c(c1)CC[C@H](C)N2C(=O)c1ccc(O)cc1O
35 | 100 | Cc1cc(S(=O)(=O)N2CCC(F)(F)CC2)cnc1-c1ccc2c(c1)CC[C@H](C)N2C(=O)c1ccc(O)cc1O
36 | 1000 | COc1ccc(OC)c(-c2ccc3c(c2)CC[C@H](C)N3C(=O)c2ccc(O)cc2O)c1
